Results on one molecule are retold here after the NIST ThermoML archive (doi:10.1016/j.jct.2015.11.005).

SMILES strings stand for the structures. ± gives the expanded uncertainty stated by the source.

For this data set the following is noted: Crystal; visual observation.

On to `COc1ccc2[nH]c([S+]([O-])Cc3ncc(C)c(OC)c3C)nc2c1` (stereo unspecified) [Omeprazole], for which the Normal melting temperature was determined as 156.00 ± 2.1 °C.
